Laboratory results: US6902881B2, “Compounds and methods for regulating cell differentiation” (priority 2000, dated 2005)

How the values were obtained:
[1] = test system: T-lymphoblast (LT) cells; assay: Proliferation of T-lymphoblast cells; assay type: cell-based, mouse
[2] = test system: HT29 colon cancer cells; assay: Cellular proliferation and viability of HT29 colon cancer cells; assay type: cell-based, human
Protocol: Cell Culture Conditions. Human HT 29 colon cancer cells were purchased from the American Type Culture Collection. Cells were maintained in Dulbecco's Modified Eagle's Medium (DME) supplemented with 5% heat-inactivated fetal bovine serum, 2 mM glutamine, and antibiotics (DME/5%). All cell lines were incubated in a humidified 5% CO2/air environment. They were maintained at 37° C. in 5% CO2 covered in aluminum foil to prevent exposure to the light. A total of 1×10^6 cells were incubated per flask and allowed to attach overnight. Media was changed every third day. Cell counts were performed on a Coulter Counter following detachment of cells by standard trypsinization procedures. […] The period of exposure was followed by incubation in the absence of biliverdine. Cell numbers were monitored until proliferation resumed. The production of CEA and alkaline phosphatase was measured as described below.
The HT29 colon cancer cells were incubated with different concentrations of biliverdine and their response studied to identify the concentration ranges required to elicit a biological and/or a toxicological response (Table III).

[3] = test system: Colon Adenocarcinoma (HT 29) cells; assay: Cellular triacyl glycerol (TAG) content, colon adenocarcinoma; assay type: cell-based, human; settings: biliverdin 4 × 10^−7 M
Protocol: Expression of differentiation markers. Carcinoembryogenic antigen in cell supernatants collected each three days was assayed by standard ELISA determinations using an IMX assay for quantitative measurement of the antigen. Cellular triacyl glycerol content was measured spectrophotometrically by enzymatic hydrolysis and analysis of the amount of glycerol released using a standard assay, Triglyceride (INT) 10 (Sigma Diagnostics). Cellular alkaline phosphatase activity was determined by measuring the fluorescence change induced by the hydrolysis of 4-methylumbelliferylphosphate. The fluorescence is detected at 450 nm with an excitation of 365 nm, using a Jobin Ivon-Spex Fluoro Max-2 fluorimeter. The alkaline phosphatase activity detected was expressed in units of μmol/mg protein/min.

[4] = test system: alkaline phosphatase activity in HT 29 cells; assay: Cellular alkaline phosphatase activity of HT 29 cells; assay type: cell-based, human; settings: HT 29, by day 20 of incubation
Protocol: Expression of differentiation markers. Carcinoembryogenic antigen in cell supernatants collected each three days was assayed by standard ELISA determinations using an IMX assay for quantitative measurement of the antigen. Cellular triacyl glycerol content was measured spectrophotometrically by enzymatic hydrolysis and analysis of the amount of glycerol released using a standard assay, Triglyceride (INT) 10 (Sigma Diagnostics). […] The fluorescence is detected at 450 nm with an excitation of 365 nm, using a Jobin Ivon-Spex Fluoro Max-2 fluorimeter. The alkaline phosphatase activity detected was expressed in units of μmol/mg protein/min. Alkaline phosphatase activity was assayed at the same periods as above but with different sets of cells. Treated and control cells were detached with trypsin and counted. One half of the cells were used to maintain the culture while the other half were used to measure alkaline phosphatase activity. […] Absorbance was detected at […] on a Varian Cary UV-Visible Spectrophotometer. The absorbance was compared against a standard curve created with bovine serum albumin from 2.5 to 25 μg/ml. […] The fluorescence generated is detected at 450 nm with an excitation of 365 nm, using a Jobin Ivon-Spex Fluoro Max-2 fluorimeter. […] The alkaline phosphatase actively detected was expressed in units of μmol product/mg protein/min.

[5] = test system: control fertilized oocytes unexposed to UV light; assay: Development of control embryos unexposed to UV light incubated with the compounds (dysmorphogen test); settings: control fertilized oocytes unexposed to UV light incubated with the compound
Protocol: Several hundred spawned eggs were fertilized in vitro and incubated at 16 to 18° C. […] The vegetal surfaces of some of these embryos were irradiated with one or the other sources of UV light within 10 min of fertilization for 20-30 min. […] The embryos were not disturbed, touched or tipped from the moment of fertilization, during UV irradiation or for the duration of development. […] A score of 5 defines a normal dorsal axis, 4 a microcephalic, 3 a cyclopic, 2 an anoptic, 1 an acephalic and 0 an adorsal embryo.
The biological activities of biliverdin and its derivatives were tested by adding each of them to the incubation solution of embryos after the termination of the UV light exposure to either 254 or 366 nm UV light and at selected time periods between T ƒfm=0.4-2.5. Final concentrations of biliverdin ranged from 0.05 to 5 μM in less than 1% ethanol. […] The extent of dorsal axis formation was analyzed by the morphological criteria described above.
Stage 1 embryos were exposed to UV-light source emitting at 366 nm (Mineralight UVSL-58, Ultraviolet Products, Inc., San Gabriel, Calif.) as described and then incubated in the presence of pure candidate DCD or commercially available biliverdin (Sigma-Aldrich, St. Louis, Mo.) at final concentrations from 0.05 to 1.2 μM in less than 1% ethanol. The concentrations were calculated using a molar extinction coefficient of 51,000. […]

C=CC1=C(C)/C(=C/C2=NC(=C\c3[nH]c(/C=C4\NC(=O)C(C)=C4C=C)c(C)c3CCC(=O)O)/C(CCC(=O)O)=C2C)NC1=O [Biliverdin, biliverdin IXα]
time until proliferation ceases [1]: within one day | time until cell division resumes at nearly the control rate ([1]; still exposed): 3 to 4 days | amount that does not affect cellular survival or proliferation ([2]; HT29): lower than 10^−7 M | concentration that causes apoptosis ([2]; HT29): ≥ 1000 nM | concentration with no effect on survival or proliferation ([2]; HT29): below 0.1 μM | Effect on cellular proliferation and viability ([2]; HT29, 0.01 μM): None | Effect on cellular proliferation and viability ([2]; HT29, 0.1 μM): Proliferative Arrest | Effect on cellular proliferation and viability ([2]; HT29, 0.30 μM): Proliferative Arrest | Effect on cellular proliferation and viability ([2]; HT29, 0.40 μM): Proliferative Arrest | Effect on cellular proliferation and viability ([2]; HT29, 1.00 μM): Apoptosis | effect on proliferation ([2]; HT29, 5 μM, associated decrease of cell numbers in first three days): arrests proliferation | time until proliferative arrest ([2]; HT29, 0.1 to 0.4 μM): ≤ 72 h | doubling time during exposure ([2]; HT29, 4×10^−7 M, next 35 days after arrest): 103 h | time of exposure until proliferation is arrested ([2]; HT29, FIG. 9): ≤ 1 days | proliferation rate after resumption, fold less than control ([2]; HT29, after end of exposure): 2-3 fold | reduction of three-day cell number increase compared to controls ([2]; HT29, treated and released cells): five-fold reduction | increase of cell number in a three-day period ([2]; HT29, treated and released cells, control about 15 times): 3.4 times | proliferation rate after resumption, relative to control ([2]; HT29, treatment discontinued day 30, resumption twelve days later): 43% | doubling time after removal of biliverdin ([2]; HT29, twelve days after removal, control 18 hrs): 41 h | % Change of TAG [3]: 154% | TAG ([3]; control 68): 105 µg/10^6 cells | peak increase of alkaline phosphatase activity [4]: fifteen-fold | average DAI of control embryos [5]: 5
